Measurements as given in patent US8993612B2, “Modulators of calcium release-activated calcium channel and methods for treatment of non-small cell lung cancer” (Rhizen Pharmaceuticals SA, priority 2009, dated 2015).
Structures can show the parent of a compound that is named as a salt. Where two headings read alike, the source gives them in different places.

Assays:
TNFα = experiment: Inhibition of TNFα release in human whole blood; format: cell-based; conditions: Concanavalin A + PMA, 20 h, read-out: IC 50 Human Whole Blood TNFα
Description: (§1) Inhibition of cytokine IL-2, IL-4, IL-5 and TNF α was determined as described below.
(§2) Freshly collected HWB was diluted with RPMI medium (1:4.5) and added to a 96-well plate. Wells were incubated with desired concentrations of the inhibitor for 15 min. Cytokine release was induced by the addition of Concanavalin A (25 μg/ml)+Phorbol Myristate Acetate (50 ng/ml) for IL-2 & TNFα or with Phytohemagglutinin (5 μg/ml) for IL-4 & IL-5 and incubated at 37° C. in an atmosphere containing […]. Supernatant was collected after 20 h (IL-2 & TNFα) or 48 h (IL-4 & IL-5) for estimation of cytokines by ELISA. Data were analysed using GraphPad Prism. IC50 values for each compound were determined based on the percent inhibition due to the test compound compared to the control.

CRAC channels [1] = molecular target: T1, CRAC channels (Homo sapiens (Human), UniProt Q96D31); experiment: In-vitro CRAC channel inhibition assay in Jurkat cells (thapsigargin-induced calcium influx); format: cell-based
T1 sequence (Q96D31 whole entry): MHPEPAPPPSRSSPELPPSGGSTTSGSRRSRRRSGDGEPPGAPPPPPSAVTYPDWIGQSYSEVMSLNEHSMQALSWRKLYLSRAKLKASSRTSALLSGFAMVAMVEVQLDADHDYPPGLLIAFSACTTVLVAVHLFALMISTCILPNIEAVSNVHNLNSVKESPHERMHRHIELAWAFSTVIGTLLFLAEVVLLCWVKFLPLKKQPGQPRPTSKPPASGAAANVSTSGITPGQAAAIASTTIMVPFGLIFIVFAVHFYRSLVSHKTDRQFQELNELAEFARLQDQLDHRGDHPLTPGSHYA
Description: Inhibition of CRAC channels was determined following thapsigargin (Sigma, Cat # T9033) induced endoplasmic calcium release in Jurkat cells. (see Yasurio Yonetoky et. al Bio. & Med. Chem. 14 (2006) 4750-4760). Cells were centrifuged and resuspended in equal volumes ° f Ca^2+ and Mg^2+ free Hanks buffer and Fluo-8 NW dye (ABD Bioquest, Inc., Sunnyvale, Calif.) loading solution at 2×10^5 cells/100 μl/well in 96-well black plate. Plate is incubated at 37° C./5% CO2 for 30 mM followed by further 15 mM incubation at room temperature. Test compounds (DMSO stocks diluted in Ca^2+ and Mg^2+ free Hanks buffer) at desired concentrations were added to the wells and incubated for […]. Thapsigargin (1 μM final concentration) was added to the wells and incubated for 15 min to inhibit the Sarco-endoplasmic reticulum Ca^2+ ATPase pump thereby depleting endoplasmic calcium and raising cytosolic calcium concentrations. Store-operated calcium entry was initiated by adding extracellular Ca^2+ to a final concentration of 1.8 mM. Fluorescence was monitored over […] on a plate reader (BMG Labtech., Germany) with excitation at 485 nm and an emission wavelength at 520 nm. Data were analyzed using GraphPad Prism. IC50 for each compound was determined based on the percent inhibition of thapsigargin-induced calcium influx into cells.

IL-2 = experiment: Inhibition of IL-2 release in human whole blood; format: cell-based; conditions: Concanavalin A + PMA, 20 h, read-out: IC 50 Human Whole Blood IL-2
Description: as §1, §2

NCI-H460 cells [2] = experiment: In-vitro cell proliferation assay in NCI-H460 cancer cell line (MTT); format: cell-based, human; conditions: for inhibition at 10 µM: NCI-H460, 10 μM; for IC50: read-out: NCI-H460 Cell line assay G1 50 nM
Description: Growth inhibition assays were carried out using 10% FBS supplemented media. Cells were seeded at a concentration of 5000 cells/well in a 96-well plate. Test compound at a concentration range from 0.01 to 10000 nM were added after 24 h. Growth was assessed using the 3-[4,5-dimethylthiazol-2-yl]-2,5-diphenyltetrazolium bromide (MTT) dye reduction test at 0 h (prior to the addition of the test compound) and 48 h after the addition of test compound. Absorbance was read on a Fluostar Optima (BMG Labtech, Germany) at a wave length of 450 nm. Data were analysed using GraphPad Prism. IC-50 for each compound was determined based on the % inhibition due to the test compound compared to the control.
For methods of cell proliferation assay, see, for example, Mosmann. T., Journal of Immunological Methods, 65(1-2), 55-63, (1983).
The effect of CRAC and/or STIM protein on the proliferation and viability of lung cancer cells was determined as follows.
For Methodology Refer 1C.

CRAC channels [3] = molecular target: T1, CRAC channels; experiment: In-vitro CRAC channel inhibition assay in NCI-H460 cancer cell line (thapsigargin-induced calcium influx); format: cell-based; conditions: NCI-H460 cells; for inhibition at 1 µM: read-out: NCI-H460 Cell Ca assay % inhibition @ 1 μM; for IC50: read-out: NCI-H460 Cell Ca assay IC 50 nM
Description: Inhibition of CRAC channels was determined following thapsigargin (Sigma, Cat # T9033) induced endoplasmic calcium release in NCI-H460 cells (National Centre For Cell Science (NCCS), Pune).
Cells (30,000 per well) were plated overnight in complete RPMI medium. Medium was substituted with Ca^2+ and Mg^2+ free Hanks buffer and Fluo-8 NW dye (ABD Bioquest, Inc., Sunnyvale, Calif.) loading solution in 96-well black plate. Plate was incubated at 37° C./5% CO2 for 30 min followed by further 15 mM incubation at room temperature. Test compounds (DMSO stocks diluted in Ca^2+ and Mg^2+ free Hanks buffer) at desired concentrations were added to the wells and incubated for 15 min. Thapsigargin (1 μM final concentration) was added to the wells and incubated for 15 min to inhibit the Sarco-endoplasmic reticulum Ca^2+ ATPase pump thereby depleting endoplasmic calcium and raising cytosolic calcium concentrations. Store-operated calcium entry was initiated by adding extracellular Ca^2+ to a final concentration of 2.5 mM. Fluorescence was monitored over 30 mM on a plate reader (BMG Labtech., Germany) with excitation at 485 nm and an emission wavelength at 520 nm. Data were analyzed using GraphPad Prism. IC50 for each compound was determined based on the percent inhibition of Thapsigargin-induced calcium influx into cells.
For Methodology Refer 1B.

Stim2 = Stim2 mRNA expression in NCI-H460 cells by PCR; format: cell-based, human; conditions: 1 and 10 μM, qualitative PCR
Description: (§3) Orai1 and Stim1 expression in non-small cell lung cancer cell lines was confirmed by PCR (polymerase chain reaction). Briefly, 5×10^6 cells treated with desired concentrations of the test article were harvested, pelleted, and resuspended in 1 ml TRI Reagent (Sigma, St. Louis, Mo.) and total RNA was extracted as per the manufacturer's instructions. cDNA was prepared using the First Strand cDNA synthesis and amplified using the following primer pairs:
(§4) Bands were resolved by agarose gel electrophoresis and visualized using SYBR safe DNA gel stain.
(§5) Orai and Stim expressions were measured using the methodology described in Example 1 above in NCI-H460 cells but with 1 and 10 μM of compound B.

NCI-H460 cells [4] = experiment: Cytotoxicity in NCI-H460 cells (lactate dehydrogenase assay); format: cell-based, human; conditions: 48 h
Description: Cytotoxicity of a test compound (Compound B) was determined using a lactate dehydrogenase assay kit (Cayman Chemicals, MI) as per the manufacturer's instructions with some minor modifications. Briefly, 20,000 cells/well in complete RPMI-1640 media were seeded in a 96-well tissue culture plate and incubated overnight at 37° C. and 5% CO2. The test compound was added to the wells in triplicate at the desired concentrations. Doxorubicin and/or 1% Triton-X were used as a positive control. After 48 h, the media was removed and assayed for lactate dehydrogenase in a colorimetric assay. Optical density was measured on a microplate reader (BMG Labtech., Germany) at 490 nM. Data were analyzed using Graphpad Prism (Graphpad software; San Diego Calif.).

Stim1 = Stim1 mRNA expression in NCI-H460 cells by PCR; format: cell-based, human; conditions: 1 and 10 μM, qualitative PCR
Description: as §3, §4, §5

Orai1 = Orai1 mRNA expression in NCI-H460 cells by PCR; format: cell-based, human; conditions: 1 and 10 μM, qualitative PCR
Description: as §3, §4, §5

[5] = test system: NCI-H460 human non-small cell lung cancer xenografts; experiment: Anti-tumor efficacy in female Balb/c nude mice bearing NCI-H460 xenografts; format: in vivo
[6] = Body weight in the NCI-H460 xenograft study; format: in vivo; conditions: Balb/c nude mice
[7] = test system: CRAC channels over the voltage operated channels (VOC); conditions: Yonetoky et al.; cited from earlier work
[8] = 30 mg/kg orally BID for 15 days

SMILES: O=C(Nc1ccc(-n2nc(C3CC3)cc2C2CC2)cc1)c1ccc2nn[nH]c2c1 [Example 2, N-[4-(3,5-dicyclopropyl-1H-pyrazol-1-yl)phenyl]-1H-benzo[d][1,2,3]triazole-6-carboxamide]
- IC50 (TNFα): 148 nM
- IC50 (CRAC channels [1]): 182 nM
- inhibition at 1 µM (CRAC channels [1]; 1 uM): 78%
- IC50 (IL-2): 102 nM
- inhibition at 10 µM (NCI-H460 cells [2]; Homo sapiens, 48 h): 34%
- inhibition at 1 µM (CRAC channels [3]): 91.1%

SMILES: O=C(Nc1ccc(-n2nc(C3CC3)cc2C2CC2)cc1)c1ccc2ncccc2c1 [Example 3, N-[4-(3,5-dicyclopropyl-1H-pyrazol-1-yl)phenyl]quinoline-6-carboxamide hydrochloride]
- inhibition at 1 µM (CRAC channels [1]; 1 uM): 100%
- IC50 (NCI-H460 cells [2]; Homo sapiens, NCI-H460, 48 h): 261 nM
- inhibition at 1 µM (CRAC channels [3]): 100%

SMILES: O=C(Nc1ccc(-n2nc(C3CC3)cc2C2CC2)cc1)c1ccc2nccnc2c1 [Example 4, N-[4-(3,5-dicyclopropyl-1H-pyrazol-1-yl)phenyl]quinoxaline-6-carboxamide]
- inhibition at 1 µM (CRAC channels [1]; 1 uM): 85%
- inhibition at 10 µM (NCI-H460 cells [2]; Homo sapiens, 48 h): 41%
- inhibition at 1 µM (CRAC channels [3]): 80.7%

SMILES: O=C(Cn1cnc2ccccc21)Nc1ccc(-n2nc(C3CC3)cc2C2CC2)cc1 [Example 5, 2-(1H-benzo[d]imidazol-1-yl)-N-[4-(3,5-dicyclopropyl-1H-pyrazol-1-yl)phenyl]acetamide]
- IC50 (CRAC channels [1]): 383 nM
- inhibition at 1 µM (CRAC channels [1]; 1 uM): 88.5%
- IC50 (NCI-H460 cells [2]; Homo sapiens, NCI-H460, 48 h): 177 nM
- IC50 (CRAC channels [3]): 79.9 nM

SMILES: O=C(Cn1nnc2ccccc21)Nc1ccc(-n2nc(C3CC3)cc2C2CC2)cc1 [Example 6, 2-(1H-benzo[d][1,2,3]triazol-1-yl)-N-[4-(3,5-dicyclopropyl-1H-pyrazol-1-yl)phenyl]acetamide]
- IC50 (TNFα): 165 nM
- IC50 (CRAC channels [1]): 51.3 nM
- inhibition at 1 µM (CRAC channels [1]; 1 uM): 94.6%
- IC50 (IL-2): 52.2 nM

SMILES: O=C(Cc1ccc2ncccc2c1)Nc1ccc(-n2nc(C3CC3)cc2C2CC2)cc1 [Example 9, N-[4-(3,5-dicyclopropyl-1H-pyrazol-1-yl)phenyl]-2-(quinolin-6-yl)acetamide]
- mRNA expression of Stim2 (Stim2): significantly reduced
- inhibition at 1 µM (CRAC channels [1]; 1 uM): 100%
- Cytotoxicity (lactate dehydrogenase in the media) (NCI-H460 cells [4]): not cytotoxic
- mRNA expression of Stim1 (Stim1): significantly reduced
- IC50 (NCI-H460 cells [2]; Homo sapiens, NCI-H460, 48 h): 270 nM
- mRNA expression of Orai1 (Orai1): significantly reduced

SMILES: Cl.O=C(Cc1ccc2ncccc2c1)Nc1ccc(-n2nc(C3CC3)cc2C2CC2)cc1 [Example 10, N-[4-(3,5-dicyclopropyl-1H-pyrazol-1-yl)phenyl]-2-(quinolin-6-yl)acetamide hydrochloride]
- % inhibition (1 uM) (CRAC channels [1]; 1 uM): 100%
- IC50 (CRAC channels [3]): 72.7 nM

SMILES: O=C(Nc1ccc(-n2nc(C(F)(F)F)cc2C2CC2)cc1)c1ccc2ncccc2c1 [Example 17, N-{4-[5-cyclopropyl-3-(trifluoromethyl)-1H-pyrazol-1-yl]phenyl}quinoline-6-carboxamide hydrochloride]
- inhibition at 1 µM (CRAC channels [1]; 1 uM): 94%
- IC50 (NCI-H460 cells [2]; Homo sapiens, NCI-H460, 48 h): 710 nM
- inhibition at 1 µM (CRAC channels [3]): 100%

SMILES: O=C(Cn1cnc2ccccc21)Nc1ccc(-n2nc(C(F)(F)F)cc2C2CC2)cc1 [Example 19, 2-(1H-benzo[d]imidazol-1-yl)-N-{4-[5-cyclopropyl-3-(trifluoromethyl)-1H-pyrazol-1-yl]phenyl}acetamide]
- inhibition at 1 µM (CRAC channels [1]; 1 uM): 69.5%
- reduction in tumor growth [5, 8]: 32%
- change in body weight [6, 8]: without any significant change
- IC50 (NCI-H460 cells [2]; 48 h): 148 nM
- inhibition at 1 µM (NCI-H460 cells [2]; Homo sapiens, NCI-H460, 1 uM, 48 h): 100%
- inhibition at 10 µM (NCI-H460 cells [2]; Homo sapiens, 48 h): 83.6%
- IC50 (NCI-H460 cells [2]; Homo sapiens, NCI-H460, 48 h): < 200 nM
- inhibition at 1 µM (CRAC channels [3]): 100%
- IC50 (CRAC channels [3]): < 200 nM

SMILES: O=C(Cc1ccc2ncccc2c1)Nc1ccc(-n2nc(C(F)(F)F)cc2C2CC2)cc1 [Example 27, N-{4-[5-cyclopropyl-3-(trifluoromethyl)-1H-pyrazol-1-yl]phenyl}-2-(quinolin-6-yl)acetamide Hydrochloride]
- IC50 (TNFα): 118 nM
- inhibition at 1 µM (CRAC channels [1]; 1 uM): 100%
- IC50 (IL-2): 125 nM
- IC50 (NCI-H460 cells [2]; Homo sapiens, NCI-H460, 48 h): 358 nM
- inhibition at 1 µM (CRAC channels [3]): 98.1%

SMILES: Cc1nnsc1C(=O)Nc1ccc(-n2nc(C(F)(F)F)cc2C(F)(F)F)cc1 [YM-58483]
- selective index for CRAC channels over VOC [7]: 31

SMILES: CC(=O)O[C@H]1C(=O)[C@@]2(C)[C@H]([C@H](OC(=O)c3ccccc3)[C@]3(O)C[C@H](OC(=O)[C@H](O)[C@@H](NC(=O)c4ccccc4)c4ccccc4)C(C)=C1C3(C)C)[C@]1(OC(C)=O)CO[C@@H]1C[C@@H]2O [taxol, Paclitaxel, reference compound]
- reduction in tumor growth ([5]; intravenous administration): 36%
- change in body weight ([6]; intravenous administration): significant reduction
